# According to US20120108501A1, “Protease Inhibitors” (priority 2009, published 2012):
# Where two headings read alike, the source gives them in different places.
# Assays:
# [1] = Pharmacokinetics of PEGylated protease inhibitor prodrugs in rats; format: in vivo, male Sprague-Dawley rats; set-up: AUCall / AUC: concentration or dose not given beside the values; settings: prodrug in plasma; for AUCall / Cmax / AUC: mean ± SD; for concentration at 24 hr: read-out: Cmin(24 hr); for half-life: read-out: t½(z) (converted)
# Procedure, shortened: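 Male Sprague-Dawley rats dosed; serial blood drawn via jugular vein catheters into K2EDTA and processed to plasma. Test article or released PEGylated molecule quantified by LC-MS/MS; Cmax, AUCall, T½ and MRTlast estimated noncompartmentally.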
# [2] = Pharmacokinetics of released PEGylated protease inhibitor following P.O. administration of prodrugs in rats; format: in vivo, male Sprague-Dawley rats; set-up: AUCall Mean: concentration or dose not given beside the values; C24 Mean: unit not given here; settings: rats (n = 4-5); for C24 Mean: concentration at 24 hours
# Procedure, shortened: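 Prodrugs given orally to male Sprague-Dawley rats, with serial blood via jugular catheter into K2EDTA. Plasma levels of test article or released PEGylated inhibitor measured by LC-MS/MS. PK parameters from noncompartmental analysis.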
# [3] = mPEG5-atazanavir in plasma after PO administration of mPEG5-ATV or of the listed prodrug
# [4] = mPEG3-atazanavir in plasma after PO administration of mPEG3-ATV or of the listed prodrug
# [5] = male, Sprague-Dawley, rat, in vivo
# [6] = male, Sprague-Dawley, rat, in vivo, read-out: Cmax
Compound,MRTlast [1],t½(z) [1],Cmin(24 hr) [1],AUCall [1],Cmax [1],"AUCall Mean [2, 3]","Cmax Mean [2, 3]","MRT last Mean [2, 3]","Tmax Median [2, 3]","AUCall Mean [2, 4]","Cmax Mean [2, 4]","MRT last Mean [2, 4]","Tmax* Median [2, 4]","C24 Mean [2, 3]","MRT last [1, 5]","concentration at 24 hr [1, 5]","AUC [1, 5]","Cmax [1, 6]","half-life [1, 5]","C24 Mean [2, 4]"
"COCCOCCOCCOCCOCCOC(=O)NC(C(=O)NC(Cc1ccccc1)C(CN(Cc1ccc(-c2ccccn2)cc1)NC(=O)C(NC(=O)OC)C(C)(C)C)OCOC)C(C)(C)C (stereo not shown) [mPEG5-Atazanavir-methyl methyl ether, mPEG5-Atazanavir Methyl Methyl Ether]",3.93 ± 1.41 h,4.54 ± 1.68 h,6.61 ± 8.39 ng/mL,3530 ± 1960 ng·h/mL,773 ± 481 ng/mL,137 ng·h/mL,23.3 ng/mL,4.76 h,2.00 h,,,,,,,,,,,
Acetate Ester-mPEG5-Atazanavir [Acetate-OCHMe—OCO2-mPEG5-Atazanavir],6.21 ± 3.38 h,4.82 ± 3.10 h,,616 ± 156 ng·h/mL,115 ± 29.0 ng/mL,616 ng·h/mL,115 ng/mL,6.21 h,0.750 h,,,,,,,,,,,
"COCCOCCOCCOCCOCCOC(=O)NC(C(=O)NC(Cc1ccccc1)C(CN(Cc1ccc(-c2ccccn2)cc1)NC(=O)C(NC(=O)OC)C(C)(C)C)OC(=O)COCCOC(=O)C(Cc1ccccc1)NC(=O)C(N)Cc1ccccc1)C(C)(C)C.Cl (stereo not drawn) [CME Phe-Phe-mPEG5-Atazanavir HCl, mPEG5-atazanavir-ethoxy-CME-Phe-Phe]",1.26 h,,BLQ,1.22 ng·h/mL,2.36 ng/mL,299 ng·h/mL,,23.9 h,24.0 h,,,,,,,,,,,
Methoxyacetate Ester-mPEG5-Atazanavir,5.81 ± 2.95 h,6.30 ± 2.06 h,,298 ± 121 ng·h/mL,38.7 ± 13.8 ng/mL,298 ng·h/mL,38.7 ng/mL,5.81 h,1.50 h,,,,,,,,,,,
"COCCOCCOCCOC(=O)N[C@H](C(=O)N[C@@H](Cc1ccccc1)[C@H](CN(Cc1ccc(-c2ccccn2)cc1)NC(=O)[C@@H](NC(=O)OC)C(C)(C)C)OCOC)C(C)(C)C [mPEG3-Atazanavir-methyl methyl ether, mPEG3-Atazanavir Methyl Methyl Ether]",3.00 ± 0.350 h,4.03 ± 1.33 h,6.52 ± 3.57 ng/mL,7740 ± 935 ng·h/mL,1680 ± 150 ng/mL,,,,,110 ng·h/mL,23.0 ng/mL,3.26 h,1.00 h,,,,,,,
"CCOC(=O)O[C@@H](CN(Cc1ccc(-c2ccccn2)cc1)NC(=O)[C@@H](NC(=O)OC)C(C)(C)C)[C@H](Cc1ccccc1)NC(=O)[C@@H](NC(=O)OCCOCCOCCOCCOCCOC)C(C)(C)C.Cl [mPEG5-Atazanavir - Ethyl Carbonate HCl, mPEG5-Atazanavir Ethyl Carbonate]",2.6 ± 0.514 h,7.46 ± 4.14 h,2.19 ± 0.700 ng/mL,2250 ± 389 ng·h/mL,740 ± 253 ng/mL,93.2 ng·h/mL,16.7 ng/mL,8.51 h,2.00 h,,,,,2.76,,,,,,
COCCOCCOCCOC(=O)NC(C(=O)NC(Cc1ccccc1)C(CN(Cc1ccc(-c2ccccn2)cc1)NC(=O)C(NC(=O)OC)C(C)(C)C)OC(=O)CCCC(=O)O)C(C)(C)C (stereo not shown) [mPEG3-Atazanavir-glutaric acid],8.23 ± 3.48 h,7.69 ± 2.54 h,2.68 ± 1.51 ng/mL,351 ± 50.2 ng·h/mL,61.3 ± 52.7 ng/mL,,,,,53.8 ng·h/mL,,19.5 h,24.0 h,,,,,,,
COCCOCCOCCOC(=O)NC(C(=O)NC(Cc1ccccc1)C(CN(Cc1ccc(-c2ccccn2)cc1)NC(=O)C(NC(=O)OC)C(C)(C)C)OC(=O)CCCC(=O)OC1C(O)C(O)OC1C(O)CO)C(C)(C)C (stereo not shown),1.86 ± 1.49 h,3.24 ± 3.26 h,0.177 ± 0.353 ng/mL,221 ± 57.1 ng·h/mL,167 ± 89.6 ng/mL,,,,,84.4 ng·h/mL,3.62 ng/mL,22.5 h,0.250 h,,,,,,,
"COCCOCCOCCOCCOCCOC(=O)N[C@H](C(=O)N[C@@H](Cc1ccccc1)[C@H](CN(Cc1ccc(-c2ccccn2)cc1)NC(=O)[C@@H](NC(=O)OC)C(C)(C)C)OC(=O)[C@H](Cc1ccccc1)NC(=O)[C@@H](N)Cc1ccccc1)C(C)(C)C.Cl [Phe-Phe-mPEG5-Atazanavir HCl, Phe-Phe-mPEG5-atazanavir hydrochloride]",1.49 ± 0.412 h,2.01 h,,31.8 ± 13.7 ng·h/mL,17.9 ± 9.09 ng/mL,94.3 ng·h/mL,12.9 ng/mL,9.22 h,0.750 h,,,,,,,,,,,
"COCCOCCOCCOCCOCCOC(=O)N[C@H](C(=O)N[C@@H](Cc1ccccc1)[C@H](CN(Cc1ccc(-c2ccccn2)cc1)NC(=O)[C@@H](NC(=O)OC)C(C)(C)C)OC(=O)[C@H](Cc1ccccc1)NC(=O)[C@@H](N)CC(C)C)C(C)(C)C.Cl [Leu-Phe-mPEG5-Atazanavir HCl, Leu-Phe-mPEG5-Atazanavir Hydrochloride]",7.57 ± 7.76 h,0.825 h,1.16 ± 2.31 ng/mL,53.8 ± 34.1 ng·h/mL,16.5 ± 14.9 ng/mL,147 ng·h/mL,25.6 ng/mL,9.33 h,1.50 h,,,,,,,,,,,
"COCCOCCOCCOC(=O)N[C@H](C(=O)N[C@@H](Cc1ccccc1)[C@H](CN(Cc1ccc(-c2ccccn2)cc1)NC(=O)[C@@H](NC(=O)OC)C(C)(C)C)OC(=O)[C@H](Cc1ccccc1)NC(=O)[C@@H](N)CC(C)C)C(C)(C)C.Cl [Leu-Phe-mPEG3-Atazanavir, Leu-Phe-mPEG3-Atazanavir Hydrochloride]",,,,,,,,,,448 ng·h/mL,84.9 ng/mL,7.56 h,2.00 h,,3.42 ± 0.916 h,0.154 ± 0.307 ng/mL,157 ± 30.3 ng·h/mL,41.9 ± 7.92 ng/mL,3.2 ± 0.981 h,2.35
"COCCOCCOCCOCCOCCOC(=O)NC(C(=O)NC(Cc1ccccc1)C(CN(Cc1ccc(-c2ccccn2)cc1)NC(=O)C(NC(=O)OC)C(C)(C)C)OC(=O)COCCOC(=O)C(N)CC(C)C)C(C)(C)C.Cl (stereo not shown) [mPEG5-Atazanavir-CME-Leucine HCl, mPEG5-Atazanavir-CME-Leucine]",0.250 ± 0.000 h,,,0.119 ± 0.0826 ng·h/mL,0.45 ± 0.330 ng/mL,65.6 ng·h/mL,2.88 ng/mL,16.5 h,9.00 h,,,,,,,,,,,
"COCCOCCOCCOCCOCCOC(=O)N[C@H](C(=O)N[C@@H](Cc1ccccc1)[C@H](CN(Cc1ccc(-c2ccccn2)cc1)NC(=O)[C@@H](NC(=O)OC)C(C)(C)C)OC(=O)[C@H](CC(C)C)NC(=O)[C@@H](N)CC(C)C)C(C)(C)C.Cl [Leu-Leu-mPEG5-Atazanavir HCl, Leu-Leu-mPEG5-Atazanavir Hydrochloride]",,,,,,118 ng·h/mL,14.1 ng/mL,10.7 h,0.750 h,,,,,2.98,3.59 ± 3.27 h,0.201 ± 0.401 ng/mL,24.9 ± 6.24 ng·h/mL,7.21 ± 0.417 ng/mL,3.6 ± 2.59 h,
Phe-Gly-mPEG3-Atazanavir Hydrochloride,0.602 ± 0.164 h,1.24 ± 0.237 h,,6.07 ± 3.82 ng·h/mL,7.38 ± 6.67 ng/mL,,,,,69.6 ng·h/mL,5.02 ng/mL,12.6 h,1.00 h,,,,,,,
COCCOCCOCCOCCOCCOC(=O)NC(C(=O)NC(Cc1ccccc1)C(CN(Cc1ccc(-c2ccccn2)cc1)NC(=O)C(NC(=O)OC)C(C)(C)C)OC(=O)COCCOC(=O)C(N)Cc1ccccc1)C(C)(C)C.Cl (stereo not shown) [mPEG5-Atazanavir-CME-phenylalanine HCl],0.25 h,,,0.0554 ± 0.096 ng·h/mL,0.222 ± 0.384 ng/mL,54.1 ng·h/mL,2.84 ng/mL,14.0 h,12.0 h,,,,,,,,,,,
